According to patent publication US7871644B2, “Pharmaceutical composition for oral use with improved absorption” (Astellas Pharma Inc., priority 2000, dated 2011):

Legend:
[1] = Number of insoluble particulate matter after adding calcium chloride to bisphosphonate solution; conditions: calcium chloride solution added, 0-60 minutes
Method: Another 2 ml distilled water were added to this liquid.
Then 2 ml of an aqueous 10 mg/ml calcium chloride.2H2O solution were added to this liquid.

[2] = Oral administration of compound B tablets to beagles 30 minutes after feed; format: in vivo; conditions: fed beagles
[3] = Number of insoluble particulate matter after adding magnesium chloride to compound B solution; conditions: compound B solution with sodium bicarbonate, magnesium chloride solution added, 0-60 minutes, FIG. 7
Method: Another 2 ml distilled water were added to this solution and the number of insoluble particulate matter (2 μm or larger) was determined 0, 15, 30, and 60 minutes after addition using an insoluble particulate matter gauge (HIAC/ROYCO®, Pacific Scientific).
Two milliliters aqueous 10 mg/ml magnesium chloride.6H2O solution were added to this prepared liquid, and the number of insoluble particulate matter (2 μm or larger) was determined 0, 15, 30 and 60 minutes after addition by the same method as in Experiment 11.
Two milliliters aqueous 10 mg/ml magnesium chloride.6H2O were added to this prepared liquid, and the number of insoluble particulate matter (2 μm or larger) was determined 0, 15, 30 and 60 minutes after addition by the same method as in Experiment 11.

[4] = J. Pharm. Sci, 86, 1997; cited from earlier work
[5] = Int. J. Pharm., 1993; cited from earlier work

O=P(O)(O)C(O)(Cc1cnc2ccccn12)P(=O)(O)O [compound B]
number of insoluble particulate matter (10 μm or larger) ([1]; compound B solution, FIG. 2): increase in the number of insoluble particulate matter
Cmax and AUC when taken with food [2]: low Cmax and AUC
number of insoluble particulate matter (2 μm or larger) [3]: increase in the number of insoluble particulate matter

O=P(O)(O)C(NC1CCCCCC1)P(=O)(O)O [compound C, [(cycloheptylamino)-methylene]bis-phosphonate]
number of insoluble particulate matter (10 μm or larger) ([1]; compound C solution with sodium bicarbonate, FIG. 4): increase in the number of insoluble particulate matter

CC(O)(P(=O)(O)O)P(=O)(O)O [compound D, (1-hydroxyethylidene)-1,1-bisphosphonate]
number of insoluble particulate matter (2 μm or larger) ([1]; compound D solution with sodium bicarbonate, FIG. 5): increase in the number of insoluble particulate matter

C[C@]12CC[C@H]3[C@@H](CCC4=CC(=O)CC[C@@]43C)[C@@H]1CC[C@@H]2O [testosterone]
reduction of the diffusion coefficient by the mucous layer [4]: 50%
share of the barrier to absorption accounted for by the mucous layer [5]: 78%
